Test [1] has as its target SthK full-length channels. As to conditions: read-out: affinity; SthK full-length channels in amphipol; cited from earlier work.
The subject of the next test is SthK. As to conditions: cited from earlier work; for open probability Po: depolarized membrane potentials (+100 mV).
Test [2] has as its system SthK CNBD. The experiment in a line: AFM single molecule force spectroscopy. As to conditions: for Ka: individual binding sites, Ka=Ka(2D)mr, mr=0.03 binding-sites/nm^2; for Ka(2D): probabilistic binding frequency model fit, contact time 0.02-1.00 s. It is filed as binding.
Test [3] relates to SthK CNBD. Briefly: joint Bell-Evans fitting of AFM-SMFS and MDS dynamic force spectra. As to conditions: Bell-Evans fit, AFM-SMFS + MDS joint data; 0.02 s bond formation.
The target of the next test is T1, His6-C-linker-CNBD (Winmispira thermophila, UniProt G0GA88).
T1 sequence (G0GA88 226-423): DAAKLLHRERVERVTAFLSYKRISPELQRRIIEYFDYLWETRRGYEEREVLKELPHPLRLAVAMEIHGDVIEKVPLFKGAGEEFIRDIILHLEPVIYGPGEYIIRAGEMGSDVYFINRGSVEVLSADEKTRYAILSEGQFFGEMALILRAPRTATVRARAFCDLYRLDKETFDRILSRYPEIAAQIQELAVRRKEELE
Briefly: microscale thermophoresis. It is filed as binding. As to conditions: 50 nM labeled His6-C-linker-CNBD; cN 0.00305-100 μM. In general terms: MST reads how a fluorescent partner responds to local heating, with and without ligand.

For test [4], the target named is His6-C-linker-CNBD construct of SthK (residues 226-423). Briefly: SEC.
Test [5] shares this target. Briefly: AFM imaging.
Where [6] appears, read: interchange between state 1 and state 2 bonds.

Several values for one entry are separate records, joined by “and”; a condition that tells them apart may be missing. Equal entries are not always repeated.

For `Nc1ncnc2c1ncn2[C@@H]1O[C@@H]2COP(=O)(O)O[C@H]2[C@H]1O` [cAMP, cyclic adenosine monophosphate], in test [1], the Kd was 600 nM. In addition, the “open probability Po” value in the test on SthK was ~ 0.4. Besides, in the test on SthK CNBD [2], the “bond formation time needed to fully populate state 2” value is reported as ~ 0.2 s, the Ka is on record as 0.31 ± 0.04 and the “Ka(2D)” value was 10.4 ± 1.3 nm^2. In the test with SthK CNBD [2] (setting [6]), the “k1 (forward rate constant for entering the deeper binding mode)” value is 5.4 ± 0.7 1/s and 5.4±0.7 * 1/s; the “k−1 (reverse rate constant for entering the deeper binding mode)” value is 4.8 ± 0.8 1/s and 4.8±0.8 * 1/s.

Turning to `Nc1nc2c(ncn2[C@@H]2O[C@@H]3COP(=O)(O)O[C@H]3[C@H]2O)c(=O)[nH]1` [cGMP, cyclic guanosine monophosphate], the Kd in test [1] is 2700 nM; at His6-C-linker-CNBD, 3300 ± 1800 nM. The koff in the test on SthK CNBD [3] amounted to 13.9 ± 6.9 s⁻¹; in the test on SthK CNBD [2] (Bell-Evans fit, AFM-SMFS only, 0.02 s (20 ms) bond formation time), 7.7 ± 1.5 s⁻¹. Moreover, the “open probability Po” value in the test with SthK was ~ 0.001. The “fold lower open probability than cAMP” value with SthK (single channel recordings) was ~ 1000 fold. Moreover, in the test on SthK CNBD [2], the Ka came out at 0.15 ± 0.02. Besides, the “kon(2D)” value with SthK CNBD [2] (kon(2D)=Ka(2D)koff) turned out to be 37.8 ± 9.7 nm^2/s. Besides, in the test with SthK CNBD [2] (molecular on rate, kon=Kakoff), the kon was 1.2 ± 0.3 s⁻¹. Besides, the “Ka(2D)” value in the test on SthK CNBD [2] worked out at 4.9 ± 0.5 nm^2.

“His6-C-linker-CNBD construct of SthK (residues 226-423) (domain or fragment)”: the stoichiometry N in test [4] and in test [5] was 4 in each case.

As usually defined, the koff is the rate constant with which the complex falls apart. One may read the stoichiometry N as a count of units in the complex or per binding partner.
